Measured values: US6593342B1, “Pharmaceutical compositions comprising 2-quinolones” (Laboratoire L. Lafon, priority 1998, dated 2003)

Test system: hormone-sensitive mouse mammary adenocarcinoma MXT (HS-MXT)
Assay: In vivo antitumor activity, mouse mammary adenocarcinoma HS-MXT
Description: 4.—In Vivo Antitumor Activity in Combination With a Cytotoxic Agent
The tests were carried out on models of:
hormone-sensitive mouse mammary adenocarcinoma MXT (HS-MXT),
in the presence or absence of cytotoxic agents such as cyclophosphamide, etoposide, doxorubicin or vincristine.
When the MTD value of a product was determined, its in vivo antitumor activity was characterized at doses of MTD/2, MTD/4 and MTD/8 on the model of mouse mammary adenocarcinoma HS-MXT and on the model of lymphoma P 388.
In all the examples presented below, irrespective of the model (mammary adenocarcinoma HS-MXT or lymphoma P 388), the control condition is represented by a batch of 9 mice to which is administered for 5 consecutive weeks and at a rate of 5 administrations (Monday, Tuesday, Wednesday, Thursday and Friday) per week a volume of 0.2 ml of physiological saline containing the solvent used to dissolve the various compounds of formulae (I) and (Ia) used.
The following parameters were determined in these tests:
i)—The survival rate of the mice
This survival rate was calculated in the form of a ratio T/C:
This ratio represents the average survival time of the median mouse from the batch of treated mice relative to the average survival time of the median mouse from the batch of control mice. Thus, a molecule induces a significant (P<0.05) increase in the survival of the animals when the index T/C exceeds 130%. Conversely, it has a toxic effect when this value of T/C is less than 70%.
ii)—The tumor growth [lacuna] by measuring the area of the grafted HS-MXT or P 388 tumors twice a week (Monday and Friday). This area is calculated by multiplying the values of the largest two perpendicular axes of the tumor. The value of these axes is measured using a sliding caliper.
The model of hormone-sensitive MXT (HS-MXT) mouse mammary adenocarcinoma grafted onto 4- to 6-week-old B6D2F1/JIco mice is derived from the milk ducts of the mammary gland (Watson C. et al. Cancer Res. 1977; 37: 3344-48).
Compound 1 is administered alone. The first injection of the product is carried out on the seventh day post-grafting (D7) for four consecutive weeks at a rate of 5 injections per week (Monday, Tuesday, Wednesday, Thursday and Friday) and at a dose of 20 mg/kg.
Cyclophosphamide (CPA) is administered alone. The first injection of the product is carried out on the fourteenth day post-grafting (D14) for three consecutive weeks at a rate of 3 injections per week (Monday, Wednesday and Friday) and at a dose of 10 mg/kg.
Compound 1 is co-administered with cyclophosphamide. In this case, the first injection of compound 1 is carried out on the seventh day post-grafting (D7) for four consecutive weeks at a rate of 5 injections per week (Monday, Tuesday, Wednesday, Thursday and Friday) at a dose of 20 mg/kg, and the first injection of cyclophosphamide is carried out on the fourteenth day post-grafting (D14) for three consecutive weeks at a rate of 3 injections per week (Monday, Wednesday and Friday) at a dose of 10 mg/kg.
Etoposide (ETO) is administered alone. The first injection of the product is carried out on the fourteenth day post-grafting (D14) for three consecutive weeks at a rate of 3 injections per week (Monday, Wednesday and Friday) and at a dose of 10 mg/kg.
Doxorubicin (DOX) is administered alone. The first injection of the product is carried out on the fourteenth day post-grafting (D14) for three consecutive weeks at a rate of 3 injections per week (Monday, Wednesday and Friday) and at a dose of 5 mg/kg.
Compound 1 is co-administered with etoposide.

| Structure (SMILES) | T/C (survival) (Table IV, HS-MXT in B6D2F1/JIco mice, compound 1 20 mg/kg 5 injections/week from D7, 4 weeks, CPA 10 mg/kg 3 injections/week from D14, 3 weeks) [%] | T/C (survival) (Table V, HS-MXT in B6D2F1/JIco mice, compound 1 20 mg/kg 5/week from D7, 4 weeks, ETO 10 mg/kg or DOX 5 mg/kg 3/week from D14, 3 weeks) [%] | Tumor area, reduction (−) or increase (+) compared with control (Table VI, HS-MXT tumors, 31st day after graft, 19 administrations of compound 1 (20 mg/kg), 8 of cyclophosphamide (10 mg/kg)) [%] | T/C (survival) (Table VII, HS-MXT, compound 21 40 mg/kg 5/week from D7, 5 weeks, ETO 10 mg/kg 3/week from D7, 3 weeks) [%] |
| --- | --- | --- | --- | --- |
| COc1ccc(-c2cc3c(OC)cc(OC)cc3[nH]c2=O)cc1 [CRL8246, 5,7-Dimethoxy-3-(4-methoxyphenyl)-1,2-dihydro-2-quinolinone] | 100 | 95 | −19.5 |  |
| COc1ccc(-c2cc3c(OC)cc(OC)cc3n(CCc3nnn[nH]3)c2=O)cc1 [CRL8256, 1-[2-(1H-1,2,3,4-Tetrazol-5-yl)ethyl]-5,7-dimethoxy-3-(4-methoxyphenyl)-1,2-dihydro-2-quinolinone] |  |  |  | 110 |
